From patent EP0618207B1, “Substituted pyridopyrimidines as antihypertensives” (AMERICAN HOME PRODUCTS CORPORATION, priority 1993, dated 1994)

What was measured:
A II-infused rat model = assay: A II-infused rat model, antihypertensive action; assay type: in vivo, Rats; conditions: 3 mg/kg id, four hours post-administration
Procedure: In accordance with their ability to antagonize angiotensin II, the compounds of this invention show antihypertensive action in the following A II-infused rat model. Rats are anesthetized with Dial-Urethane (0.60 mL/kg, ip) and the trachea cannulated with PE 240. Either one femoral artery and both femoral veins or the carotid artery and the corresponding jugular vein are cannulated with PE 50. If the jugular vein is cannulated, two cannulas are placed in the one vein. The initial portion of the duodenum (just distal to the stomach) is cannulated with PE 50 via a small midline incision. Arterial pressure and heart rate are measured from the arterial cannula. Ten to 15 min are allowed following surgery for stabilization of arterial pressure. Ganglion blockade is then produced by intravenous administration of mecamylamine at 3 mg/kg (1 mL/kg of a 3 mg/mL solution). Ganglion blockade causes a fall in arterial pressure of about 50 mmHg. Mecamylamine is given every 90 min throughout the remainder of the experiment. An A II infusion is then begun into the other venous cannula at 0.25 µg/kg/min (at 9.6 µL/min). The A II infusion returns arterial pressure to or slightly above the control level. Once arterial pressure has stabilized with the A II infusion, baseline values for mean arterial pressure (MAP) and heart rate are taken. […]

[1] = test system: Goldblatt (2K-1C) hypertensive rat model; assay: Goldblatt (2K-1C) hypertensive rat model, antihypertensive action; assay type: in vivo, Sprague-Dawley rats
Procedure: In further accordance with their ability to antagonize angiotensin II, the compounds of this invention show antihypertensive action in the following Goldblatt (2K-1C) hypertensive rat model. Sprague-Dawley rats weighing 150 g were anesthetized with pentobarbital (50 mg/kg ip) and the left renal artery was clipped with a silver wire bent to an internal diameter of 0.2 mm. The hypertension was established 4-7 weeks after clipping. At that time, the animals were anesthetized with pentobarbital (50 mg/kg ip) and the right carotid artery was cannulated. The catheter was passed subcutaneously to the dorsal side of the neck and exteriorized. The animals were fasted overnight but allowed access to water and the experiment was performed the next morning. The carotid catheter was connected to a blood pressure transducer which was linked to a MI^2 computer data acquisition system or to a Grass or Beckman recorder for the recording of mean arterial pressure (MAP) and heart rate. For oral administration, the rats were given either a compound of the invention (1, 3 or 10 mg/kg), losartan (30 mg/kg) as a standard or vehicle (0.5% methyl cellulose in distilled water) by gastric gavage (ig) in a volume of 5 mL/kg. For intravenous administration, the rats were given either a compound of the invention (0.03, 0.1, 1, 3 or 10 mg/kg) or vehicle (≦50% NaHCO3 in distilled water) in a volume of 1 mL/kg. In all experiments, saline was infused into the arterial cannula at 5 µL/min throughout the experiment to maintain patency of the cannula. Each compound was administered to a separate group of 6-12 rats and MAP and heart rate were recorded for 24 h. […] At each time point following dosing, averages were determined for absolute MAP, change in MAP (in mm Hg), and heart rate for all animals, and the standard error of the mean was calculated.

[2] = metabolic studies in rats; assay type: in vivo

| identified as metabolite of the compound of Example 3 of U.S. Patent No. 5,149,599 [2] | SMILES | lowered the A II dependent blood pressure by an average of (A II-infused rat model) | maximum decrease in MAP ([1]; 10 mg/kg ig, 9 hours post-administration) | maximum decrease in MAP ([1]; 0.1 mg/kg iv, 4 hours post-administration) | maximum decrease in MAP ([1]; 10 mg/kg ig, 23 hours post-administration) | presence of metabolite (duration and amount), Example 4 compared with Example 6 [2] |
| --- | --- | --- | --- | --- | --- | --- |
|  | Cc1nc(CO)nc2c1CCC(=O)N2Cc1ccc(-c2ccccc2-c2nnn[nH]2)cc1 [Example 2, 2-Hydroxymethyl-4-methyl-8-[2'-(1H-tetrazol-5-yl)biphenyl-4-ylmethyl]-5,8-dihydro-6H-pyrido[2,3-d]pyrimidin-7-one] | 30% |  |  |  |  |
| significant metabolites | Cc1nc(C)c2c(n1)N(Cc1ccc(-c3ccccc3-c3nn[nH]n3)cc1)C(=O)CC2O (stereo not shown) [Example 6, 5-Hydroxy-2,4-dimethyl-8-[2'-(1H-tetrazol-5-yl)-biphenyl-4-ylmethyl]-6,8-dihydro-5H-pyrido[2,3-d]pyrimidine-7-one Hydrate 0.4 Etherate] |  | 71 mm Hg |  |  |  |
| significant metabolites | Cc1nc(C)c2c(O)cc(=O)n(Cc3ccc(-c4ccccc4-c4nnn[nH]4)cc3)c2n1 [Example 4, 2,4-Dimethyl-5-hydroxy-8-[2'-(1H-tetrazol-5-yl)biphenyl-4-ylmethyl]-8H-pyrido[2,3-d]pyrimidin-7-one Sesquihydrate] |  |  | 67 mm Hg | 66 mm Hg | present significantly longer and in greater amounts than the latter |
